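48-hour exposure; five concentrations; linearly interpolated endpoints. At the GI50, growth is halved.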 The source made the active and inactive calls. No stated cut-off is given here; in the data, active = GI50 up to about 1.1 µM and inactive = higher.
Tests used:
Experiment in all cases: NCI anticancer screen, dose series, 48 h
[1] = system: SK-MEL-5
[2] = system: UACC-257
[3] = system: NCI-H522
[4] = system: HL-60
[5] = system: SK-OV-3
[6] = system: HCT-116
[7] = system: Malme-3M
[8] = system: OVCAR-4
[9] = system: SF-539
[10] = system: M14
[11] = system: U-251
[12] = system: SF-268
[13] = system: UO-31

Measured: GI50

O=[N+]([O-])c1nccn1CC(O)CN1CC1 (stereo not drawn)
inactive: [1] 71.8 µM | [2] 83.9 µM | [3] 21.5 µM | [4] 24.8 µM | [5] 35.1 µM | [6] 47.6 µM | [7] > 100 µM | [8] 74.5 µM | [9] 55.6 µM | [10] > 100 µM | [11] 35.6 µM | [12] 91.6 µM | [13] 37.8 µM

Cc1ccc(NC(=O)CCc2nnc(S)[nH]2)cc1
inactive: [1] > 100 µM | [2] > 100 µM | [3] > 100 µM | [4] > 100 µM | [5] > 100 µM | [6] > 100 µM | [7] > 100 µM | [8] > 100 µM | [9] > 100 µM | [10] > 100 µM | [11] > 100 µM | [12] > 100 µM | [13] > 100 µM

Cc1cc(O)c(C=O)c(C)c1CCC1(C)C=Cc2cc(O)ccc2O1 (stereo not drawn)
inactive: [1] 25.2 µM | [2] 18.7 µM | [3] 14.8 µM | [4] 22.8 µM | [5] 23.9 µM | [6] 16.8 µM | [7] 24.8 µM | [8] 21.9 µM | [9] 18.3 µM | [10] 17.5 µM | [11] 21.4 µM | [12] 30.3 µM

CCOC(=O)C1=C(C)C2C3C(=O)OC(=O)C3C1(C)C1C(=O)OC(=O)C21 (stereo not drawn)
inactive: [1] > 100 µM | [2] > 100 µM | [4] > 100 µM | [5] > 100 µM | [6] > 100 µM | [7] > 100 µM | [8] > 100 µM | [9] > 100 µM | [10] > 100 µM | [11] > 100 µM | [12] > 100 µM | [13] > 100 µM

COc1cc(OC)c2ssc3c(OC)cc(OC)c4ssc1c2-c43
inactive: [1] > 100 µM | [2] > 100 µM | [3] > 100 µM | [5] > 100 µM | [6] > 100 µM | [7] > 100 µM | [8] > 100 µM | [9] > 100 µM | [10] > 100 µM | [11] > 100 µM | [12] > 100 µM

CCOC(=O)/C=C1\Nc2ccccc2-n2nnnc21
inactive: [1] > 100 µM | [2] > 100 µM | [4] > 100 µM | [5] > 100 µM | [6] > 100 µM | [7] > 100 µM | [8] > 100 µM | [9] > 100 µM | [10] > 100 µM | [11] 22.1 µM | [12] > 100 µM | [13] > 100 µM

CCCCCCCCCCCCCCCCNc1cccc2ccccc12
inactive: [2] > 100 µM | [3] > 100 µM | [4] > 100 µM | [5] > 100 µM | [6] > 100 µM | [7] > 100 µM | [9] > 100 µM | [10] > 100 µM | [11] > 100 µM | [12] > 100 µM | [13] > 100 µM

Nc1cn(C2OC(CC(c3ccccc3)(c3ccccc3)c3ccccc3)C(O)C2O)c(=O)[nH]c1=O (stereo not drawn)
inactive: [1] 20.5 µM | [2] 22.9 µM | [3] 19.2 µM | [4] 17.3 µM | [5] 34.7 µM | [6] 17.6 µM | [7] 23.5 µM | [10] 22.5 µM | [11] 17.7 µM | [12] 34.7 µM | [13] 31.6 µM

Fc1ccc(/N=C2C=C/C(=N\c3ccc(F)cc3)c3ccccc3\2)cc1
inactive: [1] > 100 µM | [2] > 100 µM | [3] > 100 µM | [4] > 100 µM | [5] > 100 µM | [6] > 100 µM | [7] > 100 µM | [9] 54.1 µM | [10] > 100 µM | [11] > 100 µM | [12] 40.2 µM | [13] > 100 µM

COC(=O)C1C2C=CC(C2)N1[C@@H](C)c1ccccc1 (stereo partly drawn)
inactive: [1] > 100 µM | [2] > 100 µM | [3] > 100 µM | [4] > 100 µM | [5] > 100 µM | [6] > 100 µM | [7] > 100 µM | [9] > 100 µM | [10] > 100 µM | [11] > 100 µM | [12] > 100 µM | [13] > 100 µM

Cc1cc2c(cc1C)[n+]([O-])c(C(=O)/C=C/c1ccccc1Cl)c(C)[n+]2[O-]
inactive: [1] 24.4 µM | [2] 23 µM | [3] 12.7 µM | [4] 29.9 µM | [5] 36 µM | [7] 31.8 µM | [8] 50.7 µM | [9] 19.9 µM | [10] 24.1 µM | [11] 28.2 µM | [12] 27.9 µM | [13] 18 µM

CSc1ccc(/C=C2\CN(C)C/C(=C\c3ccc(SC)cc3)C2=O)cc1
inactive: [1] 48.8 µM | [2] 31.7 µM | [4] 21.1 µM | [5] 30.8 µM | [6] 20.4 µM | [7] > 100 µM | [8] > 100 µM | [9] 20 µM | [10] 92.3 µM | [11] 4.65 µM | [12] 29.2 µM | [13] > 100 µM

O=C(O)C(Cc1ccccc1)N1C(=O)N/C(=C\c2ccc(F)cc2)C1=O (stereo not drawn)
inactive: [1] > 100 µM | [2] > 100 µM | [3] > 100 µM | [4] > 100 µM | [5] > 100 µM | [6] > 100 µM | [8] > 100 µM | [9] > 100 µM | [10] > 100 µM | [11] > 100 µM | [13] > 100 µM

COc1cc(CNc2ccc(C(C)C)cc2)cc(OC)c1OC
inactive: [1] 14.7 µM | [2] 25.8 µM | [5] 17.6 µM | [6] 11.5 µM | [7] 19.5 µM | [8] 25.3 µM | [9] 20.3 µM | [11] 15.4 µM | [12] 54.7 µM | [13] 20.2 µM

O=C(CC1(O)C(=O)Nc2ccc([N+](=O)[O-])cc21)c1ccc2ccccc2c1 (stereo not drawn)
inactive: [2] > 100 µM | [3] 65.6 µM | [4] > 100 µM | [5] > 100 µM | [6] > 100 µM | [7] > 100 µM | [8] > 100 µM | [9] > 100 µM | [10] > 100 µM | [11] > 100 µM | [12] > 100 µM | [13] > 100 µM

O=C(/C=N/O)Nc1ccc(Cl)c(I)c1
inactive: [1] 18.4 µM | [2] 28.6 µM | [3] 14.7 µM | [4] 19.3 µM | [5] 17.8 µM | [6] 12.9 µM | [7] 25.5 µM | [8] 28.6 µM | [10] 18.6 µM | [11] 16.1 µM | [12] 19.2 µM | [13] 12.1 µM

Source: ChEMBL document CHEMBL1201862, “PubChem BioAssay data set” (2004)
